pEC50, pIC50, pKi: −log10 of the molar value.
Experiments:
[1] = molecular target: T1, Cannabinoid receptor 2 (Homo sapiens, UniProt P34972); assay: Displacement of [3H]CP55940 from recombinant human CB2 receptor expressed in HEK293 cell membrane assessed as inhibition constant incubated for 90 mins by competition binding assay; type: cell membranes; conditions: for pKi: read-out: Ki
[2] = molecular target: T2, Cannabinoid receptor 1 (Homo sapiens, UniProt P21554); assay: Displacement of [3H]CP55940 from recombinant human CB1 receptor expressed in HEK293 cell membrane assessed as inhibition constant incubated for 90 mins by competition binding assay; type: cell membranes; conditions: for pKi: read-out: Ki
T2 sequence (P21554 whole entry): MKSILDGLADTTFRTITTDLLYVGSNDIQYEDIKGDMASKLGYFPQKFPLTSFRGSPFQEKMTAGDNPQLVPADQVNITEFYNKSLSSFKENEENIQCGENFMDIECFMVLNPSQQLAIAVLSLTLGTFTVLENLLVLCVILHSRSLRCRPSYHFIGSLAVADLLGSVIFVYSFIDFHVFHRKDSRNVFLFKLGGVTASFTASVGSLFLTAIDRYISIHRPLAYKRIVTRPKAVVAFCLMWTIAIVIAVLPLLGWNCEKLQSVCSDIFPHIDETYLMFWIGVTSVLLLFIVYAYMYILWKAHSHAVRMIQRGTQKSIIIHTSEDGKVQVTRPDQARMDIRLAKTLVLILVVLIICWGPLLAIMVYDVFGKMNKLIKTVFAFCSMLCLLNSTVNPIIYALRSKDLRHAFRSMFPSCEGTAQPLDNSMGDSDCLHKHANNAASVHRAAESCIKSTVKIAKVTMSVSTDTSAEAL

[3] = molecular target: T2, Cannabinoid receptor 1; assay: Displacement of [3H]CP55940 from recombinant human CB1 receptor expressed in HEK293 cell membrane incubated for 90 mins by competition binding assay; type: cell membranes; conditions: for pIC50: read-out: IC50
[4] = molecular target: T1, Cannabinoid receptor 2; assay: Displacement of [3H]CP55940 from recombinant human CB2 receptor expressed in HEK293 cell membrane incubated for 90 mins by competition binding assay; type: cell membranes; conditions: for pIC50: read-out: IC50
[5] = species on record: Homo sapiens; assay: Selectivity ratio of Ki for displacement of [3H]CP55940 from recombinant human CB2 receptor expressed in HEK293 cell membrane to Ki for displacement of [3H]CP55940 from recombinant human CB1 receptor expressed in HEK293 cell membrane; type: cell membranes
[6] = test system: Mus musculus; assay: (§1) Cognitive enhancing activity in scopolamine induced amnesia male C57/BL6J mouse model assessed as latency time to enter novel arm at 1 mg/kg, ip preadministered with compound for 10 mins followed by scopolamine administration for 30 mins and measured after 30 mins by Y-maze test (reference value: 21.93 +/- 0.78 sec); type: functional; conditions: time 70 min, 1.167 h
[7] = molecular target: T1, Cannabinoid receptor 2; assay: Agonist activity at human CB2 receptor expressed in CHO-K1 cells assessed as reduction in NKH-477 induced cAMP production by chemiluminescence based cAMP hunter assay; type: functional, cell-based
[8] = Chemical stability of compound in phosphate buffer at pH 7.4 assessed as compound remaining at 5 uM measured after 0.5 hrs by UHPLC-MS analysis; type: physicochemical; conditions: read-out: Stability
[9] = molecular target: T1, Cannabinoid receptor 2; assay: Partial agonist activity at human CB2 receptor expressed in CHO-K1 cells assessed as reduction in NKH-477 induced cAMP production by chemiluminescence based cAMP hunter assay; type: functional, cell-based
[10] = Chemical stability of compound in phosphate buffer at pH 7.4 assessed as compound remaining at 5 uM measured after 1 hrs by UHPLC-MS analysis; type: physicochemical; conditions: read-out: Stability
[11] = Chemical stability of compound in phosphate buffer at pH 7.4 assessed as compound remaining at 5 uM measured after 2 hrs by UHPLC-MS analysis; type: physicochemical; conditions: read-out: Stability
[12] = molecular target: T1, Cannabinoid receptor 2; assay: Partial agonist activity at human CB2 receptor expressed in CHO-K1 cells assessed as reduction in NKH-477 induced cAMP production by measuring maximal efficacy by chemiluminescence based cAMP hunter assay relative to control; type: functional, cell-based; conditions: filed as partial agonist
[13] = Chemical stability of compound in phosphate buffer at pH 7.4 assessed as compound remaining at 5 uM measured after 1.5 hrs by UHPLC-MS analysis; type: physicochemical; conditions: read-out: Stability
[14] = test system: Mus musculus; assay: as §1, with “as” for “as latency time to enter”, “arm exploration time” for “arm”, “9.28” for “21.93”, “1.03” for “0.78”; type: functional; conditions: time 70 min, 1.167 h

T1 sequence (P34972 whole entry): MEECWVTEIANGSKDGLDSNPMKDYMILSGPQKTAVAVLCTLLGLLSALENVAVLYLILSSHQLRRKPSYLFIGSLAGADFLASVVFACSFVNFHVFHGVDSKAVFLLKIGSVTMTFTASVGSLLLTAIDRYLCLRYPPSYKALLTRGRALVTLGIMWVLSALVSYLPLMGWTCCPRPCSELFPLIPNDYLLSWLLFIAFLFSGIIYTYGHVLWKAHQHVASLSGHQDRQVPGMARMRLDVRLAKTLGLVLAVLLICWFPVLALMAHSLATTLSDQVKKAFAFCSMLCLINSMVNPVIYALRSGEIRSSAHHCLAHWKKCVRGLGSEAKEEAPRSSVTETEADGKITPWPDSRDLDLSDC

Row | SMILES | pKi [1] | pKi [2] | pIC50 [3] | pIC50 [4] | other results
1 | N=C(N)NCCCn1cccc1C(=O)c1ccccc1Cl | < 5.00 | < 5.00 | < 5.00 | < 5.00 | 
2 | Cc1ccc(NC(=O)c2cccn2Cc2ccc(F)cc2)cc1 | 6.57 | 5.99 | 5.21 | 5.88 | Ratio Ki [5]: 5
3 | O=C(c1ccccc1Cl)c1cccn1CCCCO | < 5.00 | < 5.00 | < 5.00 | < 5.00 | 
4 | O=C(Nc1ccc(O)cc1)[C@@H]1Cc2ccccc2CN1C(=O)CCO | < 5.00 | < 5.00 | < 5.00 | < 5.00 | 
5 | O=C(OCCCCn1cccc1C(=O)c1ccccc1Cl)c1ccccc1 | < 5.00 | < 5.00 | < 5.00 | < 5.00 | 
6 | COc1ccc(C(=O)c2c(C)n(CCN3CCOCC3)c3cc(I)ccc23)cc1 |  |  |  |  | Time [6]: 9.28 s
7 | CCCC(C)(C)c1ccc2c(c1)OC(C)(C)[C@@H]1CC=C(C)C[C@@H]21 | 8.30 | 6.55 |  |  | pEC50 [7]: 7.05
8 | CC(=O)Oc1cccc(Cn2cccc2C(=O)c2ccccc2Cl)c1 | 5.81 | < 5.00 | < 5.00 | 5.01 | 
9 | Nc1cccc(C(=O)Nc2cccc(NC(=O)CO)c2)c1 | < 5.00 | < 5.00 | < 5.00 | < 5.00 | 
10 | O=C(O)CCCn1cccc1C(=O)c1ccccc1Cl | < 5.00 | < 5.00 | < 5.00 | < 5.00 | 
11 | Cc1ccc(Cn2cccc2C(=O)c2ccc(Cl)cc2)cc1 | < 5.00 | < 5.00 | < 5.00 | < 5.00 | 
12 | O=C(CCO)N[C@@H](Cc1ccc(O)cc1)C(=O)Nc1ccc(O)cc1 | < 5.00 | < 5.00 | < 5.00 | < 5.00 | 
13 | O=C(O)CC(=O)N[C@@H](Cc1c[nH]c2ccccc12)C(=O)Nc1ccc(O)cc1 | < 5.00 | < 5.00 | < 5.00 | < 5.00 | 
14 | CC(=O)Oc1ccc(Cn2cccc2C(=O)c2ccccc2Cl)cc1 | < 5.00 | < 5.00 | < 5.00 | < 5.00 | 
15 | O=C(Nc1cccc2ccccc12)c1cccn1Cc1ccc(F)cc1 | 7.22 | < 5.00 | < 5.00 | 6.41 | remaining at 0.5 h, 5 µM [8]: 101%; pEC50 [9]: 5.21; remaining at 1 h, 5 µM [10]: 101%; remaining at 2 h, 5 µM [11]: 99.2%; Emax [12]: 43.1%; remaining at 1.5 h, 5 µM [13]: 103%
16 | O=C(c1ccc(Cl)cc1)c1cccn1Cc1ccco1 | < 5.00 | < 5.00 | < 5.00 | < 5.00 | 
17 | CC(=O)OCCCCn1cccc1C(=O)c1ccccc1Cl | 5.90 | < 5.00 | < 5.00 | 5.10 | 
18 | Cc1ccc(CNC(=O)c2cccn2Cc2ccc(F)cc2)cc1 | < 5.00 | < 5.00 | < 5.00 | < 5.00 | 
19 | O=C(c1ccccc1Cl)c1cccn1Cc1cccc(O)c1 | < 5.00 | < 5.00 | < 5.00 | < 5.00 | 
20 | CC(=O)OCCn1cccc1C(=O)c1ccccc1Cl | < 5.00 | < 5.00 | < 5.00 | < 5.00 | 
21 | Cc1c(C(=O)NN2CCCCC2)nn(-c2ccc(Cl)cc2Cl)c1-c1ccc(I)cc1 |  |  |  |  | Time [14]: 28.6 s; Time [6]: 11.01 s

Row | SMILES | pKi [1] | pKi [2] | pIC50 [3] | pIC50 [4] | other results
22 | O=C(NCc1cccc(O)c1)c1cccn1Cc1ccc(F)cc1 | < 5.00 | < 5.00 | < 5.00 | < 5.00 | 
23 | O=C(CCO)N[C@@H](Cc1c[nH]c2ccccc12)C(=O)Nc1ccc(O)cc1 | < 5.00 | < 5.00 | < 5.00 | < 5.00 | 
24 | O=C(NCc1ccccc1)c1cccn1Cc1ccc(F)cc1 | 6.15 | < 5.00 | < 5.00 | 5.34 | 
25 | O=C(NC12CC3CC(CC(C3)C1)C2)c1cccn1Cc1ccc(F)cc1 | 8.00 | < 5.00 | < 5.00 | 7.15 | remaining at 0.5 h, 5 µM [8]: 98.6%; remaining at 1 h, 5 µM [10]: 98.8%; pEC50 [7]: 5.63; remaining at 2 h, 5 µM [11]: 102%; remaining at 1.5 h, 5 µM [13]: 99.2%
26 | Cc1ccc(C(=O)c2cccn2S(=O)(=O)c2ccc(C)cc2)cc1 | < 5.00 | < 5.00 | < 5.00 | < 5.00 | 
27 | Cc1ccc(S(=O)(=O)n2cccc2C(=O)c2ccccc2)cc1 | < 5.00 | < 5.00 | < 5.00 | < 5.00 | 
28 | CC(=O)NCCCCn1cccc1C(=O)c1ccccc1Cl | < 5.00 | < 5.00 | < 5.00 | < 5.00 | 
29 | O=C(NCc1ccc(O)cc1)c1cccn1Cc1ccc(F)cc1 | < 5.00 | < 5.00 | < 5.00 | < 5.00 | 
30 | O=C(NCCO)[C@@H]1Cc2ccccc2CN1C(=O)c1ccc(O)cc1 | < 5.00 | < 5.00 | < 5.00 | < 5.00 | 
31 | CC(=O)OCCCCn1cccc1C(=O)NCc1ccccc1 | < 5.00 | < 5.00 | < 5.00 | < 5.00 | 
32 | CCOC(=O)CCCn1cccc1C(=O)c1ccccc1Cl | < 5.00 | < 5.00 | < 5.00 | < 5.00 | 
33 | Cc1ccc(S(=O)(=O)n2cccc2C(=O)c2ccc(Cl)cc2)cc1 |  |  |  |  | Ki ([1]; hek293): Not Determined(Insoluble); Ki ([2]; hek293): Not Determined(Insoluble); IC50 ([3]; hek293): Not Determined(Insoluble); IC50 ([4]; hek293): Not Determined(Insoluble)
34 | O=C(CO)Nc1cccc(NC(=O)c2cccnc2)c1 | < 5.00 | < 5.00 | < 5.00 | < 5.00 | 
35 | O=C(c1ccccc1Cl)c1cccn1CC12CC3CC(CC(C3)C1)C2 | 6.17 | < 5.00 | < 5.00 | 5.37 | 
36 | CCCCCNC(=O)c1cccn1Cc1ccc(F)cc1 | < 5.00 | < 5.00 | < 5.00 | < 5.00 | 
37 | O=C(Nc1cccc(CO)c1)c1cccn1Cc1ccc(F)cc1 | 6.60 | < 5.00 | < 5.00 | 5.80 | 
38 | COC(=O)CCCn1cccc1C(=O)c1ccccc1Cl | < 5.00 | < 5.00 | < 5.00 | < 5.00 | 
39 | O=C(c1ccccc1Cl)c1cccn1Cc1ccc(O)cc1 | < 5.00 | < 5.00 | < 5.00 | < 5.00 | 
40 | CCCCCn1cccc1C(=O)c1ccc(C)cc1 | < 5.00 | < 5.00 | < 5.00 | < 5.00 | 
41 | O=C(NCc1ccco1)c1cccn1Cc1ccc(-c2ccccc2)cc1 | 6.64 | < 5.00 | < 5.00 | 5.83 | 
42 | Nc1ccc(CNC(=O)c2cccn2Cc2ccc(F)cc2)cc1 | < 5.00 | < 5.00 | < 5.00 | < 5.00 | 
